Source: the supplement of paper PMC11208160

Assay: recombinant barcode read abundance after kanamycin selection (control-corrected) (log10(CPM+1)); higher = more efficient recombination; sequences stand for … in AGTGCAGAGAAAATCGGCCAGTTTTCTCTGCCTGCAGTCCGCATGCCGT…AGATTTATGCAGCGGACTGCCTTTCTCCCAAAGTGATAAACCGGACAGTATCATGGACCGGTTTTCCCGGTAATCCGTATTTGCAAGGTTGGTTTCACT; site = the 11-nt target
How it was run: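 Two replicates per condition were plated: chloramphenicol/ampicillin LB agar for the control, and chloramphenicol/ampicillin/kanamycin with 0.1 mM IPTG for selection. The pooled E. coli screen behind them paired targets with IS621 bridge RNA target-binding loops. Recombination efficiency is expressed from averaged, control-corrected barcode counts per million at recombinant junctions, as log10(CPM+1).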
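Further: IS621 recombinase and bridge RNA in Escherichia coli cells.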

In order of rising “recombinant barcode read abundance (log10)” value:
1. AGCGCTCCTTGGGTTCTAACCTGTTGCCT (site ATCGCTCCTAG)  0
2. AGCGCGCCTTGGGTTCTAACCTGTTGCTG (site GAGTACACTGC)  0.00819
3. AGCGAGGCTTGGGTTCTAACCTGTTGCCT (site AGCGAAGCTAG)  0.0233
4. AGCTAATCTTGGGTTCTAACCTGTTGCTT (site GAGCTGCCTTG)  0.0324
5. AGCTAATCTTGGGTTCTAACCTGTTGCTT (site AGCTAATCTAA)  0.0369
6. AGGCGCCCTTGGGTTCTAACCTGTTGCAT (site AGGCGCCCTCT)  0.041
7. AGGAAGACTTGGGTTCTAACCTGTTGCCA (site AGGCAGACTTG)  0.0465
8. AGCGCTCCTTGGGTTCTAACCTGTTGCCT (site AACGCTCCTAG)  0.0472
9. AGCTGTCCTTGGGTTCTAACCTGTTGCAG (site TAGGCGGCTAC)  0.0556
10. AGGAACTCTTGGGTTCTAACCTGTTGCTT (site AGGAGCTCTTA)  0.0561
11. AGGAGCCCTTGGGTTCTAACCTGTTGCGA (site CGGAGCCCTCC)  0.0589
12. AGCGGCCCTTGGGTTCTAACCTGTTGCCT (site AGCGGGCCTAG)  0.0662
13. AGCGGCCCTTGGGTTCTAACCTGTTGCCT (site AGCGGTCCTAG)  0.0761
14. AGGGCGTCTTGGGTTCTAACCTGTTGCCG (site AGGGCATCTAG)  0.0811
15. AGGAACTCTTGGGTTCTAACCTGTTGCAT (site GGGAACCCTAT)  0.0839
16. AGGTACACTTGGGTTCTAACCTGTTGCAC (site TTCAGACCTAG)  0.0924
17. AGGACCACTTGGGTTCTAACCTGTTGCCA (site ATGACCGCTTG)  0.0948
18. AGGTCTACTTGGGTTCTAACCTGTTGCCA (site TTAGACCCTCT)  0.1
19. AGGGTGTCTTGGGTTCTAACCTGTTGCTG (site AGGGTGCCTTA)  0.105
20. AGGTCCACTTGGGTTCTAACCTGTTGCTG (site AGGCCCACTGA)  0.109
21. AGGCGTCCTTGGGTTCTAACCTGTTGCCG (site AGGCGTCCTTG)  0.122
22. AGCTATGCTTGGGTTCTAACCTGTTGCCT (site GAAATACCTCC)  0.138
23. AGGGCACCTTGGGTTCTAACCTGTTGCAG (site CATCGGACTTC)  0.142
24. AGGATTCCTTGGGTTCTAACCTGTTGCCT (site ATGATTCCTAG)  0.158
25. AGGCCCACTTGGGTTCTAACCTGTTGCTC (site AGGTCCACTCA)  0.166
26. AGGATTCCTTGGGTTCTAACCTGTTGCCT (site AAGATTCCTAG)  0.171
27. AGGAGTCCTTGGGTTCTAACCTGTTGCGT (site AGCAGTCCTAC)  0.182
28. AGCGAGGCTTGGGTTCTAACCTGTTGCCT (site AGCGAGGCTAG)  0.188
29. AGGCCGTCTTGGGTTCTAACCTGTTGCGT (site AGGCAGTCTAG)  0.195
30. AGGCGCCCTTGGGTTCTAACCTGTTGCAT (site AGGCGCCCTGT)  0.219
31. AGCGCGCCTTGGGTTCTAACCTGTTGCTG (site AGCGCGCCTCA)  0.224
32. AGGCGTCCTTGGGTTCTAACCTGTTGCCG (site AGGCGTCCTGG)  0.227
33. AGGTCCTCTTGGGTTCTAACCTGTTGCCT (site AGGTCCTCTAC)  0.233
34. AGGAAGACTTGGGTTCTAACCTGTTGCCA (site AGGGAGACTTG)  0.239
35. AGGCGCCCTTGGGTTCTAACCTGTTGCAT (site AGGCGCCCTTT)  0.244
36. AGGCGTCCTTGGGTTCTAACCTGTTGCCT (site AGGCGTCCTCG)  0.249
37. AGCTGTCCTTGGGTTCTAACCTGTTGCAG (site AGCTGTCCTCT)  0.273
38. AGGGTCACTTGGGTTCTAACCTGTTGCCT (site AAGGTCACTAG)  0.274
39. AGCGCTCCTTGGGTTCTAACCTGTTGCCT (site ACCGCTCCTAG)  0.305
40. AGCTATGCTTGGGTTCTAACCTGTTGCCT (site AGCTATGCTAG)  0.317
41. AGCTTAGCTTGGGTTCTAACCTGTTGCCA (site AGCTTAGCTCG)  0.365
42. AGGCGTCCTTGGGTTCTAACCTGTTGCCT (site AGGCGTCCTTG)  0.374
43. AGCTTAGCTTGGGTTCTAACCTGTTGCCA (site AGCTTAGCTTG)  0.387
44. AGGAAGACTTGGGTTCTAACCTGTTGCCA (site AGGTAGACTTG)  0.412
45. AGCTTAGCTTGGGTTCTAACCTGTTGCCA (site AGCTTAGCTGG)  0.463
46. AGCGGCCCTTGGGTTCTAACCTGTTGCCT (site AGCGGACCTAG)  0.466
47. AGCTTAGCTTGGGTTCTAACCTGTTGCCA (site AGCTTAGCTAG)  0.484
48. AGGTCTACTTGGGTTCTAACCTGTTGCCA (site AGGTCTACTTG)  0.6
49. AGGATTCCTTGGGTTCTAACCTGTTGCCT (site ACGATTCCTAG)  0.634
50. AGGGTCACTTGGGTTCTAACCTGTTGCCT (site ACGGTCACTAG)  0.653
51. AGCGCTCCTTGGGTTCTAACCTGTTGCCT (site AGCGCTCCTAG)  0.68
52. AGGTCCTCTTGGGTTCTAACCTGTTGCCT (site AGGTCCTCTAT)  0.703
53. AGGAACACTTGGGTTCTAACCTGTTGCTG (site AGGAACACTAA)  0.803
54. AGGACCACTTGGGTTCTAACCTGTTGCCA (site AGGACCACTTG)  0.868
55. AGGAAGACTTGGGTTCTAACCTGTTGCCG (site AGGAAGACTCC)  0.883
56. AGGAAGACTTGGGTTCTAACCTGTTGCCA (site AGGAAGACTTG)  0.948
57. AGGCGTCCTTGGGTTCTAACCTGTTGCCG (site AGGCGTCCTAG)  0.964
58. AGGCGTCCTTGGGTTCTAACCTGTTGCCT (site AGGCGTCCTGG)  1.03
59. AGGTCCTCTTGGGTTCTAACCTGTTGCCT (site AGGTCCTCTAA)  1.05
60. AGGGTCACTTGGGTTCTAACCTGTTGCCT (site ATGGTCACTAG)  1.06
61. AGGATTCCTTGGGTTCTAACCTGTTGCCT (site AGGATTCCTAG)  1.16
62. AGGCGTCCTTGGGTTCTAACCTGTTGCCG (site AGGCGTCCTCG)  1.24
63. AGCGGCCCTTGGGTTCTAACCTGTTGCCT (site AGCGGCCCTAG)  1.26
64. AGGCGCCCTTGGGTTCTAACCTGTTGCAT (site AGGCGCCCTAT)  1.29
65. AGGGATCCTTGGGTTCTAACCTGTTGCGT (site ATGGATCCTAC)  1.29
66. AGGTCCACTTGGGTTCTAACCTGTTGCTG (site AGGTCCACTCA)  1.31
67. AGGAACACTTGGGTTCTAACCTGTTGCCT (site AGAAACACTAG)  1.36
68. AGGCGTCCTTGGGTTCTAACCTGTTGCCT (site AGGCGTCCTAG)  1.44
69. AGGGCACCTTGGGTTCTAACCTGTTGCAG (site AGGGCACCTCT)  1.56
70. AGGAGTCCTTGGGTTCTAACCTGTTGCTG (site AGGAATCCTAA)  1.57
71. AGGGCGTCTTGGGTTCTAACCTGTTGCCG (site AGGGCGTCTCG)  1.69
72. AGGCCCACTTGGGTTCTAACCTGTTGCTC (site AGGCCCACTGA)  1.81
73. AGGAACTCTTGGGTTCTAACCTGTTGCTT (site AGGAACTCTAA)  1.87
74. AGGAACACTTGGGTTCTAACCTGTTGCCT (site AGGAACACTAG)  1.94
75. AGGAAGACTTGGGTTCTAACCTGTTGCCG (site AGGAAGACTCG)  1.95
76. AGGTCCTCTTGGGTTCTAACCTGTTGCCT (site AGGTCCTCTAG)  2.06
77. AGGAGTCCTTGGGTTCTAACCTGTTGCTG (site AGGAGTCCTCA)  2.08
78. AGGTACACTTGGGTTCTAACCTGTTGCAC (site AGGTACACTGT)  2.22
79. AGGGTCACTTGGGTTCTAACCTGTTGCCT (site AGGGTCACTAG)  2.23
80. AGGCCGTCTTGGGTTCTAACCTGTTGCGT (site AGGCCGTCTAC)  2.43
81. AGGAACTCTTGGGTTCTAACCTGTTGCAT (site AGGAACTCTAT)  2.44
82. AGGGTGTCTTGGGTTCTAACCTGTTGCTG (site AGGGTGTCTCA)  2.55
83. AGGAGTCCTTGGGTTCTAACCTGTTGCGT (site AGGAGTCCTAC)  2.57
84. AGGAACACTTGGGTTCTAACCTGTTGCTG (site AGGAACACTCA)  2.65
85. AGGAGCCCTTGGGTTCTAACCTGTTGCGA (site AGGAGCCCTTC)  2.84
86. AGGGATCCTTGGGTTCTAACCTGTTGCGT (site AGGGATCCTAC)  3.09
